# Source: patent publication US11478478B2, “2,3-disubstituted 1-acyl-4-amino-1,2,3,4-tetrahydroquinoline derivatives and their use as bromodomain inhibitors” (GLAXOSMITHKLINE INTELLECTUAL PROPERTY (NO.2) LIMITED, priority 2013, dated 2022)
# Structures can show the parent of a compound that is named as a salt.
# Molecular target: T1, BRD4 BD2 (Homo sapiens, UniProt O60885, Y97A)
# T1 construct: BRD4 (1-477) (Y97A) and (Y390A); made in house; host or cells: E. coli (pET15b vector)
# Assay: TR-FRET binding assay, BRD4 BD2 (BD1-mutated protein)
# Conditions: read-out: pIC50 in the BRD4 BD2 assay (converted)
# Protocol: Time Resolved Fluorescence Resonance Energy Transfer (TR-FRET) Assay Binding was assessed using a time resolved fluorescent resonance energy transfer binding assay. This utilises a 6 His purification tag at the N-terminal of the proteins as an epitope for an anti-6 His antibody labeled with Europium chelate (PerkinElmer AD0111) allowing binding of the Europium to the proteins which acts as the donor fluorophore. A small molecule, high affinity binder of the bromodomains BRD2, BRD3, BRD4 and BRDT has been labeled with Alexa Fluor647 (Reference Compound X) and this acts as the acceptor in the FRET pair.
# In the absence of a competing compound, excitation of the Europium causes the donor to emit at λ618 nm which excites the Alexa labelled bromodomain binding compound leading to an increased energy transfer that is measurable at λ647 nM. In the presence of a sufficient concentration of a compound that can bind these proteins, the interaction is disrupted leading to a quantifiable drop in fluorescent resonance energy transfer.
# The binding of the compounds of formula (I) to Bromodomains BRD2, BRD3, BRD4 and BRDT was assessed using mutated proteins to detect differential binding to either Binding Domain 1 (BD1) or Binding Domain 2 (BD2) on the bromodomain. These single residue mutations in the acetyl lysine binding pocket greatly lower the affinity of the fluoroligand (Reference Compound X) for the mutated domain (>1000 fold selective for the non-mutated domain). Therefore in the final assay conditions, binding of the fluoroligand to the mutated domain cannot be detected and subsequently the assay is suitable to determine the binding of compounds to the single non-mutated bromodomain.
# Recombinant Human Bromodomains [(BRD2 (1-473) (Y113A) and (Y386A), BRD3 (1-435) (Y73A) and (Y348A) BRD4 (1-477) (Y97A) and (Y390A) and BRDT (1-397) (Y66A) and (Y309A)] were expressed in E. coli cells (in pET15b vector for BRD2/3/4 and in pET28a vector for BRDT) with a 6-His tag at the N-terminal. The His-tagged Bromodomain pellet was resuspended in 50 mM HEPES (pH7.5), 300 mM NaCl, 10 mM imidazole & 1 μl/ml protease inhibitor cocktail and extracted from the E. coli cells using sonication and purified using a nickel sepharose high performance column, the proteins were washed and then eluted with a linear gradient of 0-500 mM imidazole with buffer 50 mM HEPES (pH7.5), 150 mM NaCl, 500 mM imidazole, over 20 column volumes. Final purification was completed by Superdex 200 prep grade size exclusion column. Purified protein was stored at −80° C. in 20 mM HEPES pH 7.5 and 100 mM NaCl. Protein identity was confirmed by peptide mass fingerprinting and predicted molecular weight confirmed by mass spectrometry.
# All assay components were dissolved in buffer composition of 50 mM HEPES pH7.4, 50 mM NaCl, 5% Glycerol, 1 mM DTT and 1 mM CHAPS. The final concentration of bromodomain proteins were 10 nM and the Alexa Fluor647 ligand was at Kd. These components were premixed and 5 μl of this reaction mixture was added to all wells containing 50 nl of various concentrations of test compound or DMSO vehicle (0.5% DMSO final) in Greiner 384 well black low volume microtitre plates and incubated in dark for 30 minutes at rt. 5 μl of detection mixture containing 1.5 nM final concentration anti-6His Europium chelate was added to all wells and a further dark incubation of at least 30 minutes was performed. Plates were then read on the Envision platereader, (λex=317 nm, donor λem=615 nm; acceptor λem=665 nm; Dichroic LANCE dual). Time resolved fluorescent intensity measurements were made at both emission wavelengths and the ratio of acceptor/donor was calculated and used for data analysis. All data was normalized to the mean of 16 high (inhibitor control—Example 11 of WO 2011/054846A1) and 16 low (DMSO) control wells on each plate. A four parameter curve fit of the following form was then applied: y=a+((b−a)/(1+(10^/10^)^d) […]
row,IC50 [nM],Compound
1,100,"CC(=O)N1c2ccc(C3=CCOCC3)cc2[C@H](Nc2ccc(C#N)cn2)[C@@H](C)[C@@H]1C1CC1 (racemic) [Example 181, rac-6-(((2S,3R,4R)-1-acetyl-2-cyclopropyyl-6-(3,6-dihydro-2H-pyran-4-yl)-3-methyl-1,2,3,4-tetrahydroquinolin-4-yl)amino)nicotinonitrile]"
2,1000 to 100000,"CC(=O)N1c2ccc(C3CCNCC3)cc2[C@H](Nc2cnc(C)cn2)[C@@H](C)[C@@H]1C (racemic) [Example 183, rac-1-((2S,3R,4R)-2,3-dimethyl-4-((5-methylpyrazin-2-yl)amino)-6-(piperidin-4-yl)-3,4-dihydroquinolin-1(2H)-yl)ethanone, hydrochloride]"
3,1000 to 100000,"CC(=O)N1c2ccc(C3CCNCC3)cc2[C@H](Nc2ccc(C#N)cn2)[C@@H](C)[C@@H]1C (racemic) [Example 187, rac-6-(((2S,3R,4R)-1-acetyl-2,3-dimethyl-6-(piperidin-4-yl)-1,2,3,4-tetrahydroquinolin-4-yl)amino)nicotinonitrile]"
4,1000 to 100000,"CNC(=O)c1ccc(N[C@H]2c3cc(C4CCNCC4)ccc3N(C(C)=O)[C@@H](C)[C@@H]2C)cc1 (racemic) [Example 188, rac-4-(((2S,3R,4R)-1-acetyl-2,3-dimethyl-6-(piperidin-4-yl)-1,2,3,4-tetrahydroquinolin-4-yl)amino)-N-methylbenzamide]"
5,100,"CC(=O)N1c2ccc(C3=CCNCC3)cc2[C@H](Nc2ccc(C#N)cc2)[C@@H](C)[C@@H]1C1CC1 (racemic) [Example 192, rac-4-(((2S,3R,4R)-1-acetyl-2-cyclopropyl-3-methyl-6-(1,2,3,6-tetrahydropyridin-4-yl)-1,2,3,4-tetrahydroquinolin-4-yl)amino)benzonitrile]"
6,1000 to 100000,"CC(=O)N1c2ccc(N3CCOCC3)cc2[C@H](Nc2cccc(O)n2)[C@@H](C)[C@@H]1C1CC1 (racemic) [Example 210, rac-1-((2S,3R,4R)-2-cyclopropyl-4-((6-hydroxypyridin-2-yl)amino)-3-methyl-6-morpholino-3,4-dihydroquinolin-1(2H)-yl)ethanone]"
7,1000 to 100000,"CC(=O)N1c2ccc(N3CCOCC3)cc2[C@H](Nc2cnc(C)cn2)[C@@H](C)[C@@H]1C1CC1 (racemic) [Example 211, rac-1-((2S,3R,4R)-2-cyclopropyl-3-methyl-4-((5-methylpyrazin-2-yl)amino)-6-morpholino-3,4-dihydroquinolin-1(2H)-yl)ethanone]"
8,1000 to 100000,"CC[C@H]1[C@H](C)[C@@H](Nc2cnc(C)cn2)c2cc(N3CCNCC3)ccc2N1C(C)=O (racemic) [Example 218, rac-1-((2S,3R,4R)-2-ethyl-3-methyl-4-((5-methylpyrazin-2-yl)amino)-6-(piperazin-1-yl)-3,4-dihydroquinolin-1(2H)-yl)ethanone]"
9,1000 to 100000,"CC[C@H]1[C@H](C)[C@@H](Nc2ccc(C(=O)NC)cc2)c2cc(N3CCNCC3)ccc2N1C(C)=O (racemic) [Example 220, rac-4-(((2S,3R,4R)-1-acetyl-2-ethyl-3-methyl-6-(piperazin-1-yl)-1,2,3,4-tetrahydroquinolin-4-yl)amino)-N-methylbenzamide]"
10,1000 to 100000,"CC[C@H]1[C@H](C)[C@@H](Nc2cnc(C#N)cn2)c2cc(N3CCNCC3)ccc2N1C(C)=O (racemic) [Example 221, rac-5-(((2S,3R,4R)-1-acetyl-2-ethyl-3-methyl-6-(piperazin-1-yl)-1,2,3,4-tetrahydroquinolin-4-yl)amino)pyrazine-2-carbonitrile]"
11,1000 to 100000,"CC(=O)N1c2ccc(N3CCN[C@@H](C)C3)cc2[C@H](Nc2cnc(C)cn2)[C@@H](C)[C@@H]1C1CC1 (racemic) [Example 227, 1-((rac-2S,3R,4R)-2-cyclopropyl-3-methyl-6-((S)-3-methylpiperazin-1-yl)-4-((5-methylpyrazin-2-yl)amino)-3,4-dihydroquinolin-1(2H)-yl)ethanone]"
12,1000 to 100000,"CNC(=O)c1ccc(N[C@H]2c3cc(N4CCN[C@@H](C)C4)ccc3N(C(C)=O)[C@@H](C3CC3)[C@@H]2C)cc1 (racemic) [Example 228, 4-(((rac-2S,3R,4R)-1-acetyl-2-cyclopropyl-3-methyl-6-((S)-3-methylpiperazin-1-yl)-1,2,3,4-tetrahydroquinolin-4-yl)amino)-N-methylbenzamide]"
13,100,"CNC(=O)c1ccc2c(c1)[C@H](Nc1ccc(C#N)cn1)[C@@H](C)[C@H](C)N2C(C)=O (racemic) [Example 230, rac-(2S,3R,4R)-1-acetyl-4-((5-cyanopyridin-2-yl)amino)-N,2,3-trimethyl-1,2,3,4-tetrahydroquinoline-6-carboxamide]"
14,100,"CNC(=O)c1ccc2c(c1)[C@H](Nc1cccc(C)n1)[C@@H](C)[C@H](C)N2C(C)=O (racemic) [Example 231, rac-(2S,3R,4R)-1-acetyl-N,2,3-trimethyl-4-((6-methylpyridin-2-yl)amino)-1,2,3,4-tetrahydroquinoline-6-carboxamide]"
15,100,"CC[C@@H]1[C@@H](C)[C@H](Nc2cccc(C)n2)c2cc(C(=O)NC)ccc2N1C(C)=O (racemic) [Example 235, rac-(2S,3R,4R)-1-acetyl-2-ethyl-N,3-dimethyl-4-((6-methylpyridin-2-yl)amino)-1,2,3,4-tetrahydroquinoline-6-carboxamide]"
16,100,"CC[C@H]1[C@H](C)[C@@H](Nc2ccc(C#N)cn2)c2cc(C(=O)NC)ccc2N1C(C)=O (racemic) [Example 237, rac-(2S,3R,4R)-1-acetyl-4-((5-cyanopyridin-2-yl)amino)-2-ethyl-N,3-dimethyl-1,2,3,4-tetrahydroquinoline-6-carboxamide]"
17,100,"CNC(=O)c1ccc2c(c1)[C@H](Nc1nccc(C)n1)[C@@H](C)[C@H](C1CC1)N2C(C)=O (racemic) [Example 240, rac-(2S,3R,4R)-1-acetyl-2-cyclopropyl-N,3-dimethyl-4-((4-methylpyrimidin-2-yl)amino)-1,2,3,4-tetrahydroquinoline-6-carboxamide]"
18,100,"CNC(=O)c1ccc2c(c1)[C@H](Nc1ccc(C#N)cc1)[C@@H](C)[C@H](C1CC1)N2C(C)=O (racemic) [Example 243, rac-(2S,3R,4R)-1-acetyl-4-((4-cyanophenyl)amino)-2-cyclopropyl-N,3-dimethyl-1,2,3,4-tetrahydroquinoline-6-carboxamide]"
19,100,"CCNC(=O)c1ccc2c(c1)[C@H](Nc1cccc(C)n1)[C@@H](C)[C@H](CC)N2C(C)=O (racemic) [Example 279, rac-(2S,3R,4R)-1-acetyl-N,2-diethyl-3-methyl-4-((6-methylpyridin-2-yl)amino)-1,2,3,4-tetrahydroquinoline-6-carboxamide]"
20,100,"CC[C@H]1[C@H](C)[C@@H](Nc2cccc(C)n2)c2cc(C(=O)NCCC#N)ccc2N1C(C)=O (racemic) [Example 283, rac-(2S,3R,4R)-1-acetyl-N-(2-cyanoethyl)-2-ethyl-3-methyl-4-((6-methylpyridin-2-yl)amino)-1,2,3,4-tetrahydroquinoline-6-carboxamide]"
21,100,"CC[C@H]1[C@H](C)[C@@H](Nc2cccc(C)n2)c2cc(C(=O)NC(C)C)ccc2N1C(C)=O (racemic) [Example 285, rac-(2S,3R,4R)-1-acetyl-2-ethyl-N-isopropyl-3-methyl-4-((6-methylpyridin-2-yl)amino)-1,2,3,4-tetrahydroquinoline-6-carboxamide]"
